Assay [1] relates to Hyaloperonospora parasitica. Nature of the assay: Induction of systemic acquired resistance against Hyaloperonospora parasitica-induced downy mildew disease in white cabbage assessed as infected leaf area at 1 mM sprayed on leaves of one week old seedlings relative to untreated control. The class given is functional, organism-based.
Assay [2] deals with Brassica oleracea. Nature of the assay: Induction of systemic acquired resistance in Brassica oleracea (white cabbage) plants assessed as increase in glucanase activity at 1 mM sprayed on seeds by colorimetric assay. The class given is functional, organism-based.
Assay [3] concerns Brassica oleracea. Nature of the assay: Induction of systemic acquired resistance in Brassica oleracea (white cabbage) plants assessed as increase in glucanase activity at 1 mM sprayed on leaves of 3 weeks old seedlings by colorimetric assay. In kind it is functional, organism-based.
For assay [4], the system named is Brassica oleracea. Nature of the assay: Induction of systemic acquired resistance in Brassica oleracea (white cabbage) plants assessed as increase in chitinase activity at 1 mM sprayed on seeds by colorimetric assay. The class given is functional, organism-based.
For assay [5], the system named is Brassica oleracea. Nature of the assay: Induction of systemic acquired resistance in Brassica oleracea (white cabbage) plants assessed as increase in chitinase activity at 1 mM sprayed on leaves of 3 weeks old seedlings by colorimetric assay. In kind it is functional, organism-based.
The subject of assay [6] is Hyaloperonospora parasitica. Nature of the assay: Induction of systemic acquired resistance against Hyaloperonospora parasitica-induced downy mildew disease in white cabbage assessed as disease index at 1 mM sprayed on leaves exposed to compound for 2 to 48 hr measured 10 days after planting. In kind it is functional, organism-based. The note with it: TDE = time-dependent effect.

In assay [7] the test system is Brassica oleracea. Nature of the assay: Induction of systemic acquired resistance in Brassica oleracea (white cabbage) plants assessed as increase in chitinase activity at 1 mM sprayed on leaves exposed to compound for 2 to 48 hr measured 10 days after planting by colorimetric assay. In kind it is functional, organism-based. The note with it: TDE = time-dependent effect.

Assay [8] deals with Brassica oleracea. Nature of the assay: Induction of systemic acquired resistance in Brassica oleracea (white cabbage) plants assessed as increase in glucanase activity at 1 mM sprayed on leaves exposed to compound for 2 to 48 hr measured 10 days after planting by colorimetric assay. The class given is functional, organism-based. The settings on record: TDE = time-dependent effect.

Assay [9] relates to Hyaloperonospora parasitica. Nature of the assay: Induction of systemic acquired resistance against Hyaloperonospora parasitica-induced downy mildew disease in white cabbage assessed as infected leaf area sprayed on leaves of one week old seedlings relative to untreated control. The class given is functional.
The test system of assay [10] is Brassica oleracea. Nature of the assay: Induction of systemic acquired resistance in Brassica oleracea (white cabbage) plants assessed as increase in glucanase activity at 10 mM sprayed on seeds by colorimetric assay. The class given is functional, organism-based.
Assay [11] deals with Brassica oleracea. Nature of the assay: Induction of systemic acquired resistance in Brassica oleracea (white cabbage) plants assessed as increase in chitinase activity at 10 mM sprayed on seeds by colorimetric assay. The class given is functional, organism-based.
Assay [12] concerns Brassica oleracea. Nature of the assay: Induction of systemic acquired resistance in Brassica oleracea (white cabbage) plants assessed as increase in glucanase activity at 10 mM sprayed on leaves of 3 weeks old seedlings by colorimetric assay. In kind it is functional, organism-based.
Assay [13] deals with Brassica oleracea. Nature of the assay: Induction of systemic acquired resistance in Brassica oleracea (white cabbage) plants assessed as increase in chitinase activity at 10 mM sprayed on leaves of 3 weeks old seedlings by colorimetric assay. The class given is functional, organism-based.

Active and inactive are the calls of the source. The calls are words filed in the database; no cut-off is given here.

For CUPRIC SULFATE, in assay [1], the Activity was found to be 0.01%.

As to `O=C(O)c1cc(Cl)nc(Cl)c1`, the result in [2], in assay [3], in [4] and in assay [5] was Active. In addition, the Activity entry in assay [6], in [7] and in [8] was “tde” each time.

Take `CCCOC(=O)NCCCN(C)C.Cl` [PROPAMOCARB HYDROCHLORIDE]: the Activity in [9] was determined as 56.4%.

Consider MANGANESE CHLORIDE ANHYDROUS, for which the result in assay [10] and in [11] was inactive. For the same molecule, the outcome in [12] and in assay [13] was Active.

For the origin of these results see ChEMBL document CHEMBL3046759, “Seed and leaf treatments with natural compounds to induce resistance against Peronospora parasitica in Brassica oleracea” (2012).
